US8569292B2, “Cyclic inhibitors of 11β-hydroxysteroid dehydrogenase 1” (Vitae Pharmaceuticals, Inc., priority 2008, dated 2013)

Key:
[1] = target: T1, CYP2C9 (Homo sapiens, UniProt P11712); assay: Biological Test Example 7: CYP2C9 inhibition (naproxen O-demethylation); type: in vitro ADME
T1 construct: purchased Invitrogen 2859; host or cells: insect cells infected with baculovirus (microsomes)

[2] = target: T2, 11β-HSD1 (Homo sapiens, UniProt P28845); assay: Biological Test Example 4: microsomal 11β-HSD1 in the presence of 50% human plasma; settings: for Shift: IC50 in Test Example 4 divided by IC50 in Test Example 1
[3] = target: CYP3A4 (Homo sapiens, UniProt P08684); assay: Biological Test Example 6: CYP3A4 inhibition (erythromycin N-demethylation); type: in vitro ADME
[4] = target: T2, 11β-HSD1; assay: biochemical; settings: for inhibition at 0.1 µM: read-out: Average % inhibition at 100 nM
[5] = target: CYP2C19 (Homo sapiens, UniProt P33261); assay: Biological Test Example 8: CYP2C19 inhibition (diazepam N-demethylation); type: in vitro ADME
[6] = target: T1, CYP2C9; assay: Biological Test Example 9: CYP2C9 inhibition (Invitrogen kit, fluorogenic OOMR); type: in vitro ADME
[7] = Biological Test Example 1 IC50 (nM)
[8] = IC50 Range, Biological Test Example 1

T1 sequence (P11712 whole entry): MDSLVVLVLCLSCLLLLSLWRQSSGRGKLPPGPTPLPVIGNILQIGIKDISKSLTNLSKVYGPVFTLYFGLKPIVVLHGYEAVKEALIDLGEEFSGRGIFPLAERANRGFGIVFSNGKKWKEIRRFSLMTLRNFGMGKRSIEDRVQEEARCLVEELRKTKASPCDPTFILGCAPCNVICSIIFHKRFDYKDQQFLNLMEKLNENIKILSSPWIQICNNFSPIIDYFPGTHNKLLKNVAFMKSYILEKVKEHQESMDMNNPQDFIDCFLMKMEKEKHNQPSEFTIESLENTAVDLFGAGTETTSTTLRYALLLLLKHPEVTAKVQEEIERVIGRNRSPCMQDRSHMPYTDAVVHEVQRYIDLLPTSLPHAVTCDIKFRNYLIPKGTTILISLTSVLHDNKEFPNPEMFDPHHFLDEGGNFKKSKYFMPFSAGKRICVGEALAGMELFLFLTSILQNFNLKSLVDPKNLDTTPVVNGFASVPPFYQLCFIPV
Sequence of CYP3A4 (P08684 whole entry): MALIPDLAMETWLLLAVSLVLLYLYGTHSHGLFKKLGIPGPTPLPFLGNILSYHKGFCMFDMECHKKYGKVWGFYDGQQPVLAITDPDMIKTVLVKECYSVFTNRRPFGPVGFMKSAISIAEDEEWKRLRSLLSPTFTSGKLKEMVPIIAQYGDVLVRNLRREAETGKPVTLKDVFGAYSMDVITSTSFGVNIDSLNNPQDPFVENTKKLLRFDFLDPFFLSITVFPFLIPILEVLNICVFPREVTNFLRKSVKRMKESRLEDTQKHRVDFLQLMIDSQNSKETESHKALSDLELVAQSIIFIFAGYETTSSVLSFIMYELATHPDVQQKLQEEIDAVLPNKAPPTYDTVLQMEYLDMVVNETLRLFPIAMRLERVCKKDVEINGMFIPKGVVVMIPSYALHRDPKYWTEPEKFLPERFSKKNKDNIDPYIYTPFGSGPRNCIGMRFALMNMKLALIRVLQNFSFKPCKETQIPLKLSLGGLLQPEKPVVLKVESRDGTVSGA
T2 sequence (P28845 whole entry): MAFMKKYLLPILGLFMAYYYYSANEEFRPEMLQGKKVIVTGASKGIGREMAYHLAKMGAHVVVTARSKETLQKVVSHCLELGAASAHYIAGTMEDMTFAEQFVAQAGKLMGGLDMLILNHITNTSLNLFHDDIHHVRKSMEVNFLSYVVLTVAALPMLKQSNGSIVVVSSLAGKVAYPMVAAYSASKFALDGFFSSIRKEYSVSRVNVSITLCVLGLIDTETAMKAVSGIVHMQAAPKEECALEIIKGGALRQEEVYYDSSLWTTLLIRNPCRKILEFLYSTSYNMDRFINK
Sequence of CYP2C19 (P33261 whole entry): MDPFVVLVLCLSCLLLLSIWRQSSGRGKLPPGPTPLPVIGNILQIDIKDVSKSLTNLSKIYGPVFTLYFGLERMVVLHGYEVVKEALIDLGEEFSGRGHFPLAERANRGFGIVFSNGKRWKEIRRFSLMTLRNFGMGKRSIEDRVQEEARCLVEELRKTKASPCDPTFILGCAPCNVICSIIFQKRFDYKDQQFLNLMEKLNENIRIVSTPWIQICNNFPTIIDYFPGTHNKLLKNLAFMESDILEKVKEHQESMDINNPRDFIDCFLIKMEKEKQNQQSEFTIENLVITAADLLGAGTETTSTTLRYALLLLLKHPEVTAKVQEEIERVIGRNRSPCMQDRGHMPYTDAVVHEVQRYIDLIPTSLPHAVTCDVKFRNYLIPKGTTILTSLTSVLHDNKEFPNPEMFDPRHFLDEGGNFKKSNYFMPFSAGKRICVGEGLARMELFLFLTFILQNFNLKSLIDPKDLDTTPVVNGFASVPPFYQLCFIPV

## C[C@@H](c1ccc(-c2ncc(F)cn2)cc1)N1CC[C@](CC(C)(C)O)(c2ccccc2)OC1=O [EXAMPLE 13, (S)-3-((S)-1-(4-(5-fluoropyrimidin-2-yl)phenyl)ethyl)-6-(2-hydroxy-2-methylpropyl)-6-phenyl-1,3-oxazinan-2-one]
[1]
  IC50: > 10 µM
[2]
  IC50: 0.0105 µM
[3]
  IC50: > 10 µM
[4]; [7]
  IC50: 1.8 nM
[4]; [8]
  IC50: < 100 nM
[4]
  inhibition at 0.1 µM: 92.1%
[5]
  IC50: > 10 µM

## C[C@@H](c1ccc(-c2cnc(C(=O)NC3CC3)nc2)cc1)N1CC[C@](CC(C)(C)O)(c2ccccc2)OC1=O [EXAMPLE 15, N-cyclopropyl-5-(4-((S)-1-((S)-6-(2-hydroxy-2-methylpropyl)-2-oxo-6-phenyl-1,3-oxazinan-3-yl)ethyl)phenyl)pyrimidine-2-carboxamide]
[1]
  IC50: > 50 µM
[2]
  IC50: 0.0042 µM
  Shift: 2.4
[3]
  IC50: > 50 µM
[4]; [7]
  IC50: 1.7 nM
[4]; [8]
  IC50: < 100 nM
[4]
  inhibition at 0.1 µM: 94.1%
[5]
  IC50: 12.5 µM

## C[C@@H](c1ccc(-c2cnc(C(=O)NC3CC3)nc2)cc1)N1CC[C@](CC(C)(C)C#N)(c2ccccc2)OC1=O [EXAMPLE 16, 5-(4-((S)-1-((R)-6-(2-cyano-2-methylpropyl)-2-oxo-6-phenyl-1,3-oxazinan-3-yl)ethyl)phenyl)-N-cyclopropylpyrimidine-2-carboxamide]
[1]
  IC50: > 50 µM
[2]
  IC50: 0.0055 µM
  Shift: 6.9
[3]
  IC50: 24.9 µM
[4]; [7]
  IC50: 0.8 nM
[4]; [8]
  IC50: < 100 nM
[4]
  inhibition at 0.1 µM: 97.9%
[5]
  IC50: 6.1 µM

## C[C@@H](c1ccc(-c2cnc(C(=O)NC(C)(C)C)nc2)cc1)N1CC[C@](CC(C)(C)O)(c2ccccc2)OC1=O [EXAMPLE 17, N-tert-butyl-5-(4-((S)-1-((S)-6-(2-hydroxy-2-methylpropyl)-2-oxo-6-phenyl-1,3-oxazinan-3-yl)ethyl)phenyl)pyrimidine-2-carboxamide]
[1]
  IC50: 17.8 µM
[2]
  IC50: 0.0057 µM
  Shift: 2.5
[3]
  IC50: 45.3 µM
[4]; [7]
  IC50: 2.2 nM
[4]; [8]
  IC50: < 100 nM
[4]
  inhibition at 0.1 µM: 94%
[5]
  IC50: 5.9 µM

## C[C@@H](c1ccc(-c2nc(C(=O)NC3CC3)cs2)cc1)N1CC[C@](CC(C)(C)O)(c2ccccc2)OC1=O [EXAMPLE 19, N-cyclopropyl-2-(4-((S)-1-((S)-6-(2-hydroxy-2-methylpropyl)-2-oxo-6-phenyl-1,3-oxazinan-3-yl)ethyl)phenyl)thiazole-4-carboxamide]
[1]
  IC50: 31.7 µM
[2]
  IC50: 0.0198 µM
  Shift: 10.4
[3]
  IC50: 27.1 µM
[4]; [7]
  IC50: 1.9 nM
[4]; [8]
  IC50: < 100 nM
[4]
  inhibition at 0.1 µM: 94.6%
[5]
  IC50: 10.3 µM

## C[C@@H](c1ccc(-c2nc(C(=O)NC(C)(C)C)cs2)cc1)N1CC[C@](CC(C)(C)O)(c2ccccc2)OC1=O [EXAMPLE 22, N-tert-butyl-2-(4-((S)-1-((S)-6-(2-hydroxy-2-methylpropyl)-2-oxo-6-phenyl-1,3-oxazinan-3-yl)ethyl)phenyl)thiazole-4-carboxamide]
[1]
  IC50: 4.5 µM
[2]
  IC50: 0.0181 µM
[3]
  IC50: 5.2 µM
[4]; [7]
  IC50: 2.8 nM
[4]; [8]
  IC50: < 100 nM
[4]
  inhibition at 0.1 µM: 90%
[5]
  IC50: 3.6 µM

## COc1ccc(-c2ccc([C@H](C)N3CC[C@](CC(C)(C)O)(c4ccccc4)OC3=O)cc2)cn1 [EXAMPLE 93, (S)-6-(2-hydroxy-2-methylpropyl)-3-((S)-1-(4-(6-methoxypyridin-3-yl)phenyl)ethyl)-6-phenyl-1,3-oxazinan-2-one]
[1]
  IC50: 8 µM
[6]
  IC50: 8 µM
[3]
  IC50: 11.6 µM
[5]
  IC50: 11.4 µM

## C[C@@H](c1ccc(-c2ccc(C#N)cn2)cc1)N1CC[C@](CCCO)(c2ccc(F)cc2)OC1=O [EXAMPLE 101, 6-(4-((S)-1-((R)-6-(4-fluorophenyl)-6-(3-hydroxypropyl)-2-oxo-1,3-oxazinan-3-yl)ethyl)phenyl)nicotinonitrile]
[1]
  IC50: 9.9 µM
[2]
  IC50: 0.0075 µM
  Shift: 6.0
[3]
  IC50: > 50 µM
[4]; [7]
  IC50: 1.2 nM
[4]; [8]
  IC50: < 100 nM
[4]
  inhibition at 0.1 µM: 100%
[5]
  IC50: > 50 µM

## Cc1nccc(-c2ccc([C@H](C)N3CC[C@](CC(C)(C)O)(c4ccccc4)OC3=O)cc2)n1 [EXAMPLE 135, (S)-6-(2-hydroxy-2-methylpropyl)-3-((S)-1-(4-(2-methylpyrimidin-4-yl)phenyl)ethyl)-6-phenyl-1,3-oxazinan-2-one]
[1]
  IC50: 44.4 µM
[2]
  IC50: 0.0054 µM
  Shift: 3.1
[3]
  IC50: 22.8 µM
[4]; [7]
  IC50: 1.8 nM
[4]; [8]
  IC50: < 100 nM
[4]
  inhibition at 0.1 µM: 97.3%
[5]
  IC50: 35.8 µM

## Cc1cc(-c2ccc([C@H](C)N3CC[C@](CC(C)(C)O)(c4ccccc4)OC3=O)cc2)cc(C)n1 [EXAMPLE 139, (S)-3-((S)-1-(4-(2,6-dimethylpyridin-4-yl)phenyl)ethyl)-6-(2-hydroxy-2-methylpropyl)-6-phenyl-1,3-oxazinan-2-one]
[1]
  IC50: 21.4 µM
[6]
  IC50: 9.9 µM
[3]
  IC50: > 50 µM
[5]
  IC50: 18.2 µM

## Cc1cc(-c2ccc([C@H](C)N3CC[C@](CC(C)(C)O)(c4ccc(F)cc4)OC3=O)cc2)cc(C)n1 [EXAMPLE 144, (S)-3-((S)-1-(4-(2,6-dimethylpyridin-4-yl)phenyl)ethyl)-6-(4-fluorophenyl)-6-(2-hydroxy-2-methylpropyl)-1,3-oxazinan-2-one]
[1]
  IC50: 10.2 µM
[2]
  IC50: 0.012 µM
  Shift: 9.8
[3]
  IC50: 11.9 µM
[4]; [7]
  IC50: 1.2 nM
[4]; [8]
  IC50: < 100 nM
[4]
  inhibition at 0.1 µM: 98.6%
[5]
  IC50: 9.6 µM

## Cc1ccc(-c2ccc([C@H](C)N3CC[C@](CC(C)(C)O)(c4ccc(F)cc4)OC3=O)cc2)nn1 [EXAMPLE 155, (S)-6-(4-fluorophenyl)-6-(2-hydroxy-2-methylpropyl)-3-((S)-1-(4-(6-methylpyridazin-3-yl)phenyl)ethyl)-1,3-oxazinan-2-one]
[1]
  IC50: 38.9 µM
[2]
  IC50: 0.0064 µM
  Shift: 3.0
[3]
  IC50: > 50 µM
[4]; [7]
  IC50: 2.1 nM
[4]; [8]
  IC50: < 100 nM
[4]
  inhibition at 0.1 µM: 94.7%
[5]
  IC50: > 50 µM

## C[C@@H](c1ccc(-c2ccc(C(=O)N(C)C)cn2)cc1)N1CC[C@](CC(C)(C)O)(c2ccccc2)OC1=O [EXAMPLE 156, 6-(4-((S)-1-((S)-6-(2-hydroxy-2-methylpropyl)-2-oxo-6-phenyl-1,3-oxazinan-3-yl)ethyl)phenyl)-N,N-dimethylnicotinamide]
[1]
  IC50: > 50 µM
[2]
  IC50: 0.0101 µM
[3]
  IC50: > 50 µM
[4]; [7]
  IC50: 1.1 nM
[4]; [8]
  IC50: < 100 nM
[4]
  inhibition at 0.1 µM: 96.4%
[5]
  IC50: 47.6 µM

## C[C@@H](c1ccc(-c2ncc(C(=O)N(C)C)s2)cc1)N1CC[C@](CC(C)(C)O)(c2ccccc2)OC1=O [EXAMPLE 158, 2-(4-((S)-1-((S)-6-(2-hydroxy-2-methylpropyl)-2-oxo-6-phenyl-1,3-oxazinan-3-yl)ethyl)phenyl)-N,N-dimethylthiazole-5-carboxamide]
[1]
  IC50: > 50 µM
[2]
  IC50: 0.0129 µM
[3]
  IC50: > 50 µM
[4]; [7]
  IC50: 2.1 nM
[4]; [8]
  IC50: < 100 nM
[4]
  inhibition at 0.1 µM: 95.7%
[5]
  IC50: > 50 µM

## CCOc1ncc(-c2ccc([C@H](C)N3CC[C@](CC(C)(C)O)(c4ccccc4)OC3=O)cc2)cc1C [EXAMPLE 160, (S)-3-((S)-1-(4-(6-ethoxy-5-methylpyridin-3-yl)phenyl)ethyl)-6-(2-hydroxy-2-methylpropyl)-6-phenyl-1,3-oxazinan-2-one]
[1]
  IC50: 2.3 µM
[2]
  IC50: 0.0174 µM
  Shift: 17.5
[3]
  IC50: 4.5 µM
[4]; [7]
  IC50: 1 nM
[4]; [8]
  IC50: < 100 nM
[4]
  inhibition at 0.1 µM: 95%
[5]
  IC50: 1.7 µM

## C[C@@H](c1ccc(-c2ccc(C(=O)NC3CC3)cn2)cc1)N1CC[C@](CC(C)(C)O)(c2ccccc2)OC1=O [EXAMPLE 161, N-cyclopropyl-6-(4-((S)-1-((S)-6-(2-hydroxy-2-methylpropyl)-2-oxo-6-phenyl-1,3-oxazinan-3-yl)ethyl)phenyl)nicotinamide]
[1]
  IC50: 36 µM
[2]
  IC50: 0.0039 µM
[3]
  IC50: > 50 µM
[4]; [7]
  IC50: 1.1 nM
[4]; [8]
  IC50: < 100 nM
[4]
  inhibition at 0.1 µM: 95.1%
[5]
  IC50: 10.5 µM

## C[C@@H](c1ccc(-c2ccc(C(=O)NC(C)(C)C)cn2)cc1)N1CC[C@](CC(C)(C)O)(c2ccccc2)OC1=O [EXAMPLE 163, N-tert-butyl-6-(4-((S)-1-((S)-6-(2-hydroxy-2-methylpropyl)-2-oxo-6-phenyl-1,3-oxazinan-3-yl)ethyl)phenyl)nicotinamide]
[1]
  IC50: 6.9 µM
[2]
  IC50: 0.0059 µM
[3]
  IC50: 15.9 µM
[4]; [7]
  IC50: 1.6 nM
[4]; [8]
  IC50: < 100 nM
[4]
  inhibition at 0.1 µM: 90.3%
[5]
  IC50: 10.9 µM

## Cc1ccc(-c2ccc([C@H](C)N3CC[C@](CC(C)(C)C#N)(c4ccccc4)OC3=O)cc2)nn1 [EXAMPLE 166, 2,2-dimethyl-3-((R)-3-((S)-1-(4-(6-methylpyridazin-3-yl)phenyl)ethyl)-2-oxo-6-phenyl-1,3-oxazinan-6-yl)propanenitrile]
[1]
  IC50: 9 µM
[2]
  IC50: 0.0023 µM
  Shift: 2.3
[3]
  IC50: 20.7 µM
[4]; [7]
  IC50: 1 nM
[4]; [8]
  IC50: < 100 nM
[4]
  inhibition at 0.1 µM: 96.5%
[5]
  IC50: 39.5 µM

## Cc1nnc(-c2ccc([C@H](C)N3CC[C@](CC(C)(C)O)(c4ccccc4)OC3=O)cc2)s1 [EXAMPLE 172, (S)-6-(2-Hydroxy-2-methyl-propyl)-3-{(S)-1-[4-(5-methyl-[1,3,4]thiadiazol-2-yl)-phenyl]-ethyl}-6-phenyl-[1,3]oxazinan-2-one]
[1]
  IC50: 38.1 µM
[2]
  IC50: 0.0106 µM
[3]
  IC50: > 50 µM
[4]; [7]
  IC50: 3.3 nM
[4]; [8]
  IC50: < 100 nM
[4]
  inhibition at 0.1 µM: 97.9%
[5]
  IC50: 44.4 µM
